Data on one compound can be found in patent publication US20200155481A1, “INTRAMUSCULAR ATOVAQUONE FOR MALARIA PROPHYLAXIS” (THE JOHNS HOPKINS UNIVERSITY, priority 2017, published 2020).

In general, half-life refers to how long it takes for the measured level to halve.

For data set [1] the following is noted: cited from earlier work.
Data set [2] relates to P. berghei ANKA sporozoites. Briefly: murine Plasmodium berghei sporozoite challenge model (prophylaxis efficacy). The following applies: intramuscular, dose-dependent; mice; FIG. 2. The data set is classed as in vivo. As for the experimental part:
Four- to six-day old Anopheles stephensi adult mosquitoes fasted for 6 h were fed on Swiss Webster mice infected with P. berghei (ANKA 2.34 strain). Fed mosquitoes were maintained for 18 d (19° C., 80% relative humidity), when salivary glands were harvested into RPMI medium and disrupted by several passages through a 0.5 in 28-gauge needle to release sporozoites. Parasites were counted by hemocytometer and diluted to 25,000 mL^−1 RPMI. C57BL6 mice were challenged by intravenous infusion of 5,000 sporozoites in 200 μL RPMI.
(§1) All dosing materials were constituted just before use. Mepron suspension (150 mg/mL atovaquone) was the starting material. Pluronic F-68 (10%) was used to dilute Mepron to required dosing concentration (≤100 mg/mL), or as vehicle control. For the washed drug preparation, atovaquone was pelleted from diluted Mepron (50 mg/mL, 13,000×g, 10 min) and the supernatant was replaced with equal volume 0.9% NaCl. Washing was repeated three times prior to final resuspension of excipient-depleted atovaquone at 50 mg/mL in 0.9% NaCl for dosing. C57BL6 male mice (˜20 g; 3-5 per group) were injected intramuscularly (biceps femoris; 23-gauge needle, 100 μl Hamilton syringe) with diluted or washed Mepron (40 μl total volume, 20 μl per limb). Oral Mepron was administered by gavage. […]

The next data set is described as follows: in vivo. Further details: species or system mice. The following applies: male, C57BL6, mouse, im, 200 mg/kg. As for the experimental part: as §1, with “gavage. At predetermined post-dose intervals, animals were challenged with P. berghei ANKA by infusion of 5,000 sporozoites into a tail vein. Starting 4 d post-challenge then weekly thereafter for 42 d, tail snip blood samples were examined for parasites via Giemsa-stained thin smears. Each experiment included an untreated cohort to validate the challenge. Efficacy outcomes were binary. The appearance of parasitemia in any animal in a cohort was designated a dosing failure.” for “gavage.”

`O=C1C(O)=C([C@H]2CC[C@H](c3ccc(Cl)cc3)CC2)C(=O)c2ccccc21` [atovaquone]: in data set [1], the solubility in water result was “practically insoluble”. Besides, the “successful malaria prophylaxis (parasite-free), days post-challenge” value in data set [2] was “up to 42 days”. This compound also gave a half-life in “in vivo” of 182 h.
